Data from patent US20210077668A1, “Highly Adherent Polymers for Orthopedic Device Coatings” (Clemson University Research Foundation, priority 2018, published 2021).

Legend:
Type in all cases: cell-based
S. aureus [1] = experiment: Maximum concentration of bacteria inactivated in the presence of 1 cm pieces of K-wires
Protocol: Control K-wires were coated with monolaurin (ML), a natural antimicrobial agent active against S. aureus. Sample K-wires were coated with a copolymer formed from 20 mole percent glycidyl methacrylate, 60 mole percent ethylene glycol methacrylate and 20 mole percent ethylene glycol methacrylate available as OEGMA 950 from Sigma Aldrich. Some of the K-wires were pulled through Septa™, to simulate surgical insertion, and the antimicrobial activity was measured. Each example was replicated nine times.

S. aureus [2] = experiment: Bacteria count versus time with coated K-wires (FIG. 1)
Protocol: Additional tests were done wherein bacterial count was monitored versus time for different bacteria. In FIG. 1 the bacteria count was measured for S. aureus versus time. The K-wire alone as a control was ineffective as expected.

[3] = test system: Methicillin-Resistant Staphylococcus Aureus (MRSA); experiment: Bacteria count versus time with coated K-wires (FIG. 2)
S. aureus biofilms [4] = experiment: Effectiveness against biofilms, K-wires incubated in S. aureus for 48 hours (FIG. 4); conditions: S. aureus 48 hours
Protocol: Effectiveness of the inventive examples against biofilms was determined. Samples were prepared including a control K-wire (Control), a K-wire coated with ML only but not passed through a Septa™ (ML Coated), a sample treated with ML and passed through a Septa™ (ML Coated Septa), and inventive examples comprising ML with polymer, using OEGMA as the hydrophilic moiety (ML/POEGMA). Some of the inventive samples were passed through a Septa™ (ML/POEGMA Septa). The samples were all incubated in S. aureus for 48 hours. The results are provided graphically in FIG. 4.

S. aureus biofilms [5] = experiment: S. aureus biofilm formation on 1 cm K-wire pieces, 48 hours (Example 3)
Protocol: The performance of Copolymer A was compared to poly(lactide-co-glycolide) PLGA) with monolaurin as a model antimicrobial additive. S. aureus biofilms were grown by statically incubating a S. Aureus suspension with 1 cm K-wire pieces for 48 hours.

For `CCCCCCCCCCCC(=O)OCC(O)CO` (centres unmarked) [ML, monolaurin], the “Maximum concentration of bacteria inactivated in the presence of 1 cm pieced of K-wires” value (“Maximum concentration” below) (S. aureus [1]; No Polymer after Septa, ML 1 mg/ml) was 0, the “Maximum concentration” value (S. aureus [1]; No Polymer after Septa, ML 3 mg/ml) was 0 and the “Maximum concentration” value (S. aureus [1]; No Polymer after Septa, ML 5 mg/ml) was 0. The “Maximum concentration” value (S. aureus [1]; No Polymer after Septa, ML 10 mg/ml) was 0, the “Maximum concentration” value (S. aureus [1]; No Polymer, no Septa, ML 1 mg/ml) was ~6 × 10^6 and the “Maximum concentration” value (S. aureus [1]; No Polymer, no Septa, ML 3 mg/ml) was ~7 × 10^6. For the same compound, the “Maximum concentration” value (S. aureus [1]; No Polymer, no Septa, ML 5 mg/ml) was ~6 × 10^6, the “Maximum concentration” value (S. aureus [1]; No Polymer, no Septa, ML 10 mg/ml) was ~8 × 10^6 and the “bacteria count versus time (course)” value (S. aureus [2]) was “immediate decrease in bacteria due to essentially immediate release of ML, however, the activity was not sustained”. The “bacteria count versus time (course)” value [3] was “results similar to those observed for S. aureus”, the effectiveness against biofilms (S. aureus biofilms [4]; not passed through a Septa) was “effective resistance” and the effectiveness against biofilms (S. aureus biofilms [4]; passed through a Septa) was “removed or otherwise rendered ineffective”. For the same compound, the “antimicrobial activity against biofilm formation” value (S. aureus biofilms [5]; after pulling the wires through silicon rubber Septa caps) was “lost the antimicrobial activity” and the “prevention of biofilm formation” value (S. aureus biofilms [5]; before pulling through Septa, S. aureus 48 hours) was “efficient in preventing biofilm formation”.
